Values quoted from earlier work in patent publication US5578629A, “Benzamide-containing inhibitors of farnesyl-protein transferase” (Merck & Co., Inc., priority 1995, dated 1996).

Test system: farnesyl-protein transferase
Conditions: via inhibition of HMG-CoA reductase

Row | Compound | Indirect inhibition of farnesyl-protein transferase in vivo
1 | CC[C@H](C)C(=O)O[C@H]1CCC=C2C=C[C@H](C)[C@H](CC[C@@H]3C[C@@H](O)CC(=O)O3)[C@H]21 [compactin] | Indirect inhibition of farnesyl-protein transferase in vivo has been demonstrated
2 | CC[C@H](C)C(=O)O[C@H]1C[C@@H](C)C=C2C=C[C@H](C)[C@H](CC[C@@H]3C[C@@H](O)CC(=O)O3)[C@H]21 [lovastatin] | Indirect inhibition of farnesyl-protein transferase in vivo has been demonstrated
